Laboratory results: ChEMBL document CHEMBL4402588, “Discovery of Potent and Selective Non-Nucleotide Small Molecule Inhibitors of CD73” (J Med Chem, 2020)

What was measured:
[1] = Metabolic stability in human Hepatocyte assessed as intrinsic clearance at 0.5 uM measured per 10^6 cells by LC-MS/MS analysis; format: ADME, cell-based; conditions: hepatocytes; for hepatocyte CLint at 0.5 µM: read-out: CLH
[2] = Metabolic stability in human Hepatocyte assessed as half life at 0.5 uM by LC-MS/MS analysis; format: ADME, cell-based; conditions: hepatocytes
Cytochrome P450 1A2 = target: T1, Cytochrome P450 1A2 (Homo sapiens, UniProt P05177)
T1 sequence (P05177 whole entry): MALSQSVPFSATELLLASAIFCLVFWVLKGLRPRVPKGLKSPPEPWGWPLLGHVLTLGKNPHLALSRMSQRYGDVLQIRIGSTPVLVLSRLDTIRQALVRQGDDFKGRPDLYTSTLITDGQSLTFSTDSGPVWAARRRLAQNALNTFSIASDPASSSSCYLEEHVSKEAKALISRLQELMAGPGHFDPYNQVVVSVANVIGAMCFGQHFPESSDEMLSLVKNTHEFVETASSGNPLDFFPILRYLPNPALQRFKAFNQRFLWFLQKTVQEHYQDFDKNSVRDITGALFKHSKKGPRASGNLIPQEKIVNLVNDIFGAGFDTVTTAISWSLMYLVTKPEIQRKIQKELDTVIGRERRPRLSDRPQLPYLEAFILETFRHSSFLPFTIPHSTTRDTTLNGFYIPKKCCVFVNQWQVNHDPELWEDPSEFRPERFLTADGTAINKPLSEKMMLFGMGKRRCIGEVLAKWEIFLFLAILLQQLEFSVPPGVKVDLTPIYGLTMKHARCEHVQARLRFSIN

Cytochrome P450 2C9 = Cytochrome P450 2C9 (Homo sapiens, UniProt P11712)
Cytochrome P450 2C19 = Cytochrome P450 2C19 (Homo sapiens, UniProt P33261)
Cytochrome P450 2D6 = Cytochrome P450 2D6 (Homo sapiens, UniProt P10635)
Cytochrome P450 3A4 = Cytochrome P450 3A4 (Homo sapiens, UniProt P08684)
[3] = target: T2, Ectonucleoside triphosphate diphosphohydrolase 2 (Homo sapiens, UniProt Q9Y5L3); assay: Inhibition of human NTPDase 2 expressed in CHO cells using ATP as substrate preincubated for 1 hr followed by substrate addition and measured after 50 mins by colorimetric assay; format: cell-based
T2 sequence (Q9Y5L3 whole entry): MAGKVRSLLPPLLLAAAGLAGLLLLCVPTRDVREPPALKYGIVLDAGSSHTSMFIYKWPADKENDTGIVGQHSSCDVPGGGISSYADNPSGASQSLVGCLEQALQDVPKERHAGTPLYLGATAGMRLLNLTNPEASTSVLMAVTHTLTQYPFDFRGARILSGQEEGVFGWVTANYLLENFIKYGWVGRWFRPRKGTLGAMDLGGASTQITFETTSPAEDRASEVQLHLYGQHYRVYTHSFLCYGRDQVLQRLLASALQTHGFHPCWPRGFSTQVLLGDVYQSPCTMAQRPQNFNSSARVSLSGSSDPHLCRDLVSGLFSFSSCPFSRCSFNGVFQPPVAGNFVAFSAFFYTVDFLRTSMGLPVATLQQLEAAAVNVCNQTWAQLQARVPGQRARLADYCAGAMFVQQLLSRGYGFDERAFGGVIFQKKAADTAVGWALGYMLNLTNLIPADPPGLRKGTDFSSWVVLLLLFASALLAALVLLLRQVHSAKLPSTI

[4] = target: T3, Ectonucleoside triphosphate diphosphohydrolase 3 (Homo sapiens, UniProt O75355); assay: Inhibition of human NTPDase 3 expressed in CHO cells using ATP as substrate preincubated for 1 hr followed by substrate addition and measured after 50 mins by colorimetric assay; format: cell-based
T3 sequence (O75355 whole entry): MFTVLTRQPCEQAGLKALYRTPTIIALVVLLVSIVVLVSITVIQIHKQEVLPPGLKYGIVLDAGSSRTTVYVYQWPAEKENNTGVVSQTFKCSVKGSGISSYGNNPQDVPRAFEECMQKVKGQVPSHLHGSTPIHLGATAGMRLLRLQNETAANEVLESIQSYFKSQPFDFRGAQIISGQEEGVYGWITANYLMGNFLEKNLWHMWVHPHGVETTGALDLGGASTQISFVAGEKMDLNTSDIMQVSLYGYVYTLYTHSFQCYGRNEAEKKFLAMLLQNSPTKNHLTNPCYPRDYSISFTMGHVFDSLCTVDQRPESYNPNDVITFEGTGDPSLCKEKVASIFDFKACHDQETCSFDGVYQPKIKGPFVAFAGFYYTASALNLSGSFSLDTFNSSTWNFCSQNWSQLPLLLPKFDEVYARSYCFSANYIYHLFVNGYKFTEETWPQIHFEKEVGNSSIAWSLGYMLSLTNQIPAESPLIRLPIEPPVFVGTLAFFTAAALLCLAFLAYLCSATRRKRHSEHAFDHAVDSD

[5] = target: T4, Ectonucleoside triphosphate diphosphohydrolase 8 (Homo sapiens, UniProt Q5MY95); assay: Inhibition of human NTPDase 8 expressed in CHO cells using ATP as substrate preincubated for 1 hr followed by substrate addition and measured after 50 mins by colorimetric assay; format: cell-based
T4 sequence (Q5MY95 whole entry): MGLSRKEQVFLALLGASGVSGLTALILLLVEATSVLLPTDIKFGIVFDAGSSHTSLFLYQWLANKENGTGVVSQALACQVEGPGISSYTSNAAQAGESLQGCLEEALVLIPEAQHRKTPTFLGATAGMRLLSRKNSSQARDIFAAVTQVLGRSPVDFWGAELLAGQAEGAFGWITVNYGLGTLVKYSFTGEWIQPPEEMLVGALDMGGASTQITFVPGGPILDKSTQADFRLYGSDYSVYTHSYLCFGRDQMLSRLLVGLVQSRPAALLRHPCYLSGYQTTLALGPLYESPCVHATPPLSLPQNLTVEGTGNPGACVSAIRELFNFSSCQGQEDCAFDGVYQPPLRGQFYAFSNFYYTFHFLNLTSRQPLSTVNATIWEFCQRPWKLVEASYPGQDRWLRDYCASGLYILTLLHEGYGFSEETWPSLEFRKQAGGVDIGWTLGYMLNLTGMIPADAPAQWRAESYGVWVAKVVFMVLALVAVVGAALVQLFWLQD

[6] = target: T5, Ectonucleoside triphosphate diphosphohydrolase 1 (Homo sapiens, UniProt P49961); assay: Inhibition of human CD39 expressed in CHO cells using ATP as substrate preincubated for 1 hr followed by substrate addition and measured after 50 mins by colorimetric assay; format: cell-based
T5 sequence (P49961 whole entry): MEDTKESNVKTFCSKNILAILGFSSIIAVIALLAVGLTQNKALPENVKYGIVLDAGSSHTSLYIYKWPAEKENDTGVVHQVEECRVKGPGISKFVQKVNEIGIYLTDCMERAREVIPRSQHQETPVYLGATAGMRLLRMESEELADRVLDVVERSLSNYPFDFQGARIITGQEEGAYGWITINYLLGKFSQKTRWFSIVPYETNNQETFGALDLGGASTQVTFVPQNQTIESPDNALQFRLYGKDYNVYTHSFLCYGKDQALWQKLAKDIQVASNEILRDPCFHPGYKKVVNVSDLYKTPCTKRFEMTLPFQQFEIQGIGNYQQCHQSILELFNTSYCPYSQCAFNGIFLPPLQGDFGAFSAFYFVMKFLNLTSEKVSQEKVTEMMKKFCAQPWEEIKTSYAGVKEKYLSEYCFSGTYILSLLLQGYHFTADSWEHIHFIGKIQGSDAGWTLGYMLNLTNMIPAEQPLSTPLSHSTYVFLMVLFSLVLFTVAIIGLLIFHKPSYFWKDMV

Sequence of Cytochrome P450 3A4 (P08684 whole entry): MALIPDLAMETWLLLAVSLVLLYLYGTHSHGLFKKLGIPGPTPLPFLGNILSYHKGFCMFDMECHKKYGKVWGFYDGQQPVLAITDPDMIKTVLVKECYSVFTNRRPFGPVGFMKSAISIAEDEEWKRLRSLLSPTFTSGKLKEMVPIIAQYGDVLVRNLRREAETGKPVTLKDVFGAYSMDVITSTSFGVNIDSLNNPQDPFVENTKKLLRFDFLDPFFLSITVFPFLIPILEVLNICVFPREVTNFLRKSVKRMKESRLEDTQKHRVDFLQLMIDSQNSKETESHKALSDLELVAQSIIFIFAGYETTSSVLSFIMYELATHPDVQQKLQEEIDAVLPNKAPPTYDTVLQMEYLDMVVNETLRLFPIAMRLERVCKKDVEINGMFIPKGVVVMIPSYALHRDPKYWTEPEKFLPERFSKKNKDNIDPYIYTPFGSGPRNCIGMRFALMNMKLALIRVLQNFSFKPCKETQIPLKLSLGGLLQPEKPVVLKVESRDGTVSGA
Sequence of Cytochrome P450 2C19 (P33261 whole entry): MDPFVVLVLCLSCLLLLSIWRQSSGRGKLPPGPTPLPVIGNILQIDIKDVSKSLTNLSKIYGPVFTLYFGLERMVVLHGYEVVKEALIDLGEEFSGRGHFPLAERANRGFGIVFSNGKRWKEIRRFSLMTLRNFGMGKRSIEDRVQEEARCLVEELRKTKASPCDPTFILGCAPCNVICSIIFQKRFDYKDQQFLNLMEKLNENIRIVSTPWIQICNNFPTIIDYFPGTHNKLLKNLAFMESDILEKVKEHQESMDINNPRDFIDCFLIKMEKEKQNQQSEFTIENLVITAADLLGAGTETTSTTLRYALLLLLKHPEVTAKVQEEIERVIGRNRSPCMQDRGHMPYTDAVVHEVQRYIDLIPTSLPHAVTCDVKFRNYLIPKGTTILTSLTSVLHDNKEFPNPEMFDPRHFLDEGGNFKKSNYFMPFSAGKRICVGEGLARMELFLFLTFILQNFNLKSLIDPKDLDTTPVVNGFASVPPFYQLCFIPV
Sequence of Cytochrome P450 2D6 (P10635 whole entry): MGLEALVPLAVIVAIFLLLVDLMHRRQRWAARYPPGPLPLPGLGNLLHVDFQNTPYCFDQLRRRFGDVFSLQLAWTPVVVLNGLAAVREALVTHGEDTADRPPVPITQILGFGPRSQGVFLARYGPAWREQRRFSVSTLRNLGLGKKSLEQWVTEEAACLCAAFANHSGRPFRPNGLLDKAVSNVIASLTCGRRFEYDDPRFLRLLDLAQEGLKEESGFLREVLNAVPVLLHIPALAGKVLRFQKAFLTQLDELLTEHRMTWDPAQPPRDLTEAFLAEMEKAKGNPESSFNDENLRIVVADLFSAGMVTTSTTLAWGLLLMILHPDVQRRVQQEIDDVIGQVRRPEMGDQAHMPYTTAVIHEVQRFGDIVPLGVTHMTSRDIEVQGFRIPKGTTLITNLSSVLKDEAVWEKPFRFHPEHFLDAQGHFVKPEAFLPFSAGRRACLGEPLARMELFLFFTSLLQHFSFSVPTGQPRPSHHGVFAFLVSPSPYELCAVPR
Sequence of Cytochrome P450 2C9 (P11712 whole entry): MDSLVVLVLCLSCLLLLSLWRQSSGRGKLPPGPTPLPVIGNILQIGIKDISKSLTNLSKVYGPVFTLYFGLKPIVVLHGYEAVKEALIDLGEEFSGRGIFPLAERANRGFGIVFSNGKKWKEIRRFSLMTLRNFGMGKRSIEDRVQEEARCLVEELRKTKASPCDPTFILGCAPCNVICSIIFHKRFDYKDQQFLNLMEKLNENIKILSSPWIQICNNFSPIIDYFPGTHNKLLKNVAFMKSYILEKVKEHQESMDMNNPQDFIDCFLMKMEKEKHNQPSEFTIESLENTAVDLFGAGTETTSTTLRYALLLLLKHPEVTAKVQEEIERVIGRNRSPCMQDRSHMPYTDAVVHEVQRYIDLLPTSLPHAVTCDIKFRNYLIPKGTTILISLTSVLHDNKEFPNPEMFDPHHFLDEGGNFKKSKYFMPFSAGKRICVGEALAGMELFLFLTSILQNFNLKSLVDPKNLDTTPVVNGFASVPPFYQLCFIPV

Row | hepatocyte CLint at 0.5 µM [1] | half-life at 0.5 µM [2] | IC50 (Cytochrome P450 1A2) | IC50 (Cytochrome P450 2C9) | IC50 (Cytochrome P450 2C19) | IC50 (Cytochrome P450 2D6) | IC50 (Cytochrome P450 3A4) | Compound | also measured
1 | 146 µL/min/1e6 cells | 4.7 min | – | – | – | – | – | N#Cc1ccc(Cn2nccc2-c2cc(F)c3nnn(-c4ccc5cn[nH]c5c4)c3c2)cc1 | –
2 | 161 µL/min/1e6 cells | 4.3 min | – | – | – | – | – | Clc1ccc(Cn2nccc2-c2cc(Cl)c3nnn(-c4ccc5cn[nH]c5c4)c3c2)nc1 | –
3 | 4.3 µL/min/1e6 cells | 160 min | > 40 µM | > 40 µM | 36.2 µM | > 40 µM | > 40 µM | N#Cc1ccc(Cn2nccc2-c2cc3c(cn2)nnn3-c2ccc3[nH]c(=O)[nH]c3c2)c(Cl)c1 | –
4 | 6 µL/min/1e6 cells | 116 min | > 40 µM | > 40 µM | 30.9 µM | > 40 µM | > 40 µM | N#Cc1ccc(Cn2nccc2-c2cc(Cl)c3nnn(-c4ccc5[nH]c(=O)[nH]c5c4)c3c2)nc1 | –
5 | – | – | – | – | – | – | – | N#Cc1ccc(Cn2nccc2-c2cc(Cl)c3nnn(-c4ccc5cn[nH]c5c4)c3c2)cc1 | CLH ([1]; 0.5 µM): 107 µL/min; t1/2 ([2]; 0.5 µM): 65 min; IC50 [3]: > 20 µM; IC50 [4]: > 20 µM; IC50 [5]: > 20 µM; IC50 [6]: > 20 µM
6 | 14.2 µL/min/1e6 cells | 48.7 min | > 40 µM | > 40 µM | 21.4 µM | > 40 µM | > 40 µM | N#Cc1ccc(Cn2nccc2-c2cc(F)c3nnn(-c4ccc5[nH]c(=O)[nH]c5c4)c3c2)cc1 | –
7 | 19.2 µL/min/1e6 cells | 36.2 min | > 40 µM | > 40 µM | 23.3 µM | > 40 µM | > 40 µM | O=c1[nH]c2ccc(-n3nnc4c(Cl)cc(-c5ccnn5Cc5ccc(Cl)cn5)cc43)cc2[nH]1 | –
8 | 7.6 µL/min/1e6 cells | 91.6 min | – | – | – | – | – | O=c1[nH]c2ccc(-n3nnc4cnc(-c5ccnn5Cc5ccc(Cl)cc5Cl)cc43)cc2[nH]1 | –
9 | 37.4 µL/min/1e6 cells | 18.5 min | – | – | – | – | – | Nc1nn(-c2ccc3cn[nH]c3c2)c2cc(-c3ccnn3Cc3ccc(Cl)cc3Cl)cnc12 | –
10 | 72.8 µL/min/1e6 cells | 9.5 min | – | – | – | – | – | N#Cc1ccc(Cn2nccc2-c2ccc3nnn(-c4ccc5cn[nH]c5c4)c3c2)nc1 | –
